# Experimental data reported in article PMC6199744, “Development of Chemical Proteomics for the Folateome and Analysis of the Kinetoplastid Folateome” (ACS Infectious Diseases, 2018).
# Where “and” joins values, the source holds several entries; their conditions need not be identical. Identical values can stand only once. Like-named read-outs stand apart in the source and are kept apart here.
# System: L. major lysate proteins
# Assay: Multitargeted bead mixture chemoproteomics, single concentration competition, proteome-wide
# Type: binding
# Conditions: for fold change / fold change relative to vehicle control: vehicle control = 1; for fold change relative to vehicle control: competition with free ligand
smiles,measurement,setting,value
CCCCCCOc1ccc(Cc2cnc(N)nc2N)cc1 [compound 1],fold change vs vehicle control,,0.96 and 1.16 and 1.02 and 0.84
same,fold change,LINJ.05.0500 ATPASE ALPHA SUBUNIT,1.04
same,fold change,LINJ.36.4570 PROTEASOME REGULATORY ATPASE SUBUNIT,0.72
same,fold change,"LMJF.10.0510 GLYCEROL-3-PHOSPHATE DEHYDROGENASE NAD ], GLYCOSOMAL",0.92
same,fold change,LMJF.16.1610 PROHIBITIN,1.18
same,fold change,"LMJF.18.1370 HEAT SHOCK PROTEIN, PUTATIVE",0.95
same,fold change,"LMJF.19.0300 RNA BINDING PROTEIN, PUTATIVE",0.89
same,fold change,"LMJF.21.0760 […]-ATP-ASE SUBUNIT 5, PUTATIVE",0.7
same,fold change,"LMJF.22.0410 HYPOTHETICAL PROTEIN, CONSERVED",0.84
same,fold change,"LMJF.25.1770 ENOYL-COA REDUCTASE, PUTATIVE",0.98
same,fold change,LMJF.26.0300 AMINOPEPTIDASE-LIKE PROTEIN,0.77
same,fold change,"LMJF.26.2560 HYPOTHETICAL PROTEIN, CONSERVED",0.82
same,fold change,"LMJF.27.1810 GLYCOSOMAL PHOSPHOENOLPYRUVATE CARBOXYKINASE, PUTATIVE",1.05
same,fold change,"LMJF.28.0490 PROPIONYL-COA CARBOXYLASE BETA CHAIN, PUTATIVE",0.7
same,fold change,"LMJF.29.0940 HY[…], CONSERVED",1.06
same,fold change,"LMJF.29.1310 CARNITINE/CHOLINE ACETYLTRANSFERASE, PUTATIVE",0.99
same,fold change,"LMJF.29.1470 HYPOTHETICAL PROTEIN, CONSERVED",0.73
same,fold change,"LMJF.29.2440 HYPOTHETICAL PROTEIN, CONSERVED",0.88
same,fold change,LMJF.30.2350 SPHINGOSINE 1-PHOSPHATE LYASE,1.13
same,fold change,"LMJF.30.2970 GLYCERALDEHYDE 3-PHOSPHATE DEHYDROGENASE, GLYCOSOMAL",1.09
same,fold change,"LMJF.30.3390 CAS/CSE/IMPORTIN DOMAIN PROTEIN, PUTATIVE",0.85
same,fold change,LMJF.31.2650 ACETOIN DEHYDROGENASE E3 COMPONENT-LIKE PROTEIN,0.92
same,fold change,"LMJF.31.2970 ACETYL-COA CARBOXYLASE, PUTATIVE",0.96
same,fold change,"LMJF.33.1030 HYPOTHETICAL PROTEIN, CONSERVED",0.85
same,fold change,"LMJF.33.1930 PHOSPHORIBOSYLPYROPHOSPHATE SYNTHETASE, PUTATIVE",0.91
same,fold change,LMJF.35.5040 polyadenylate-binding protein 1,0.93
same,fold change,"LMJF.35.5250 ALPHA-1,2-MANNOSYLTRANSFERASE, PUTATIVE",0.88
same,fold change,"LMJF.36.5100 HYPOTHETICAL PROTEIN, CONSERVED",0.89
same,fold change,"LMJF.[…] RIBOSOMAL PROTEIN S7, PUTATIVE",1.43
same,fold change vs vehicle control,"protein LINJ.03.0940 HY[…], CONSERVED",1.24
same,fold change vs vehicle control,"protein LINJ.09.0030 HYPOTHETICAL PROTEIN, CONSERVED",0.98
same,fold change relative to vehicle control,"protein LINJ.11.0780 40S RIBOSOMAL PROTEIN S21, PUTATIVE",1.29
same,fold change,"protein LINJ.13.0990 PROTEASOME REGULATORY ATPASE SUBUNIT 2, PUTATIVE",0.79
same,fold change vs vehicle control,protein LINJ.13.1460 ALPHA TUBULIN,1
same,fold change,"protein LINJ.15.0090 HEAT SHOCK PROTEIN HSLVU, ATPASE SUBUNIT HSLU, PUTATIVE",0.97
same,fold change relative to vehicle control,"protein LINJ.16.1380 […], PUTATIVE",1.55
same,fold change vs vehicle control,protein LINJ.19.0300 RNA BINDING PROTEIN,1.16
same,fold change relative to vehicle control,"protein LINJ.20.1390 COATOMER BETA SUBUNIT, PUTATIVE",1.01
same,fold change vs vehicle control,"protein LINJ.21.1310 40S RIBOSOMAL PROTEIN S23, PUTATIVE",1.08
same,fold change vs vehicle control,"protein LINJ.23.1680 HYPOTHETICAL PROTEIN, CONSERVED",0.98
same,fold change vs vehicle control,"protein LINJ.25.1170 […] OXIDASE VII, PUTATIVE",1.03
same,fold change relative to vehicle control,protein LINJ.25.1220 RIBOSOMAL PROTEIN S25,1.36
same,fold change vs vehicle control,"protein LINJ.26.1080 HY[…], CONSERVED",1.09
same,fold change vs vehicle control,"protein LINJ.27.1140 HYPOTHETICAL PROTEIN, CONSERVED",0.97
same,fold change vs vehicle control,"protein LINJ.28.1100 RIBOSOMAL PROTEIN S20, PUTATIVE",1
same,fold change relative to vehicle control,"protein LINJ.28.1940 REPLICATION FACTOR A, 51KDA SUBUNIT, PUTATIVE",1.2
same,fold change,"protein LINJ.31.2350 ADP-RI[…], PUTATIVE",1.13
same,fold change vs vehicle control,"protein LINJ.34.0670 PROTEASOME REGULATORY NON-ATP-ASE SUBUNIT 11, PUTATIVE",0.97
same,fold change,"protein LINJ.35.0410 40S RIBOSOMAL PROTEIN S3A, PUTATIVE",1.07
same,fold change relative to vehicle control,"protein LINJ.35.0780 CBS DOMAIN PROTEIN, CONSERVED",1.21
same,fold change vs vehicle control,"protein LINJ.36.0510 HY[…], CONSERVED",1.03
same,fold change vs vehicle control,"protein LINJ.36.3940 40S RIBOSOMAL PROTEIN S27-1, PUTATIVE",0.91
same,fold change,protein LINJ.36.4180 HS1VU COMPLEX PROTEOLYTIC SUBUNIT-LIKE,0.81
same,fold change,protein LINJ.36.7350 CYTOCHROME C OXIDASE SUBUNIT I,0.96
same,fold change,"protein LMJF.01.0520 LONG-CHAIN-FATTY-ACID-COA LIGASE, PUTATIVE",0.59
same,fold change vs vehicle control,"protein LMJF.02.0460 HYPOTHETICAL PROTEIN, CONSERVED",0.96
same,fold change vs vehicle control,"protein LMJF.03.0230 LONG CHAIN FATTY ACYL COA SYNTHETASE, PUTATIVE",1.11
same,fold change vs vehicle control,"protein LMJF.03.0630 HYPOTHETICAL PROTEIN, CONSERVED",0.95
same,fold change,"protein LMJF.05.0780 HY[…], CONSERVED",1.17
same,fold change,protein LMJF.06.0010 HISTONE H4,1.14
same,fold change,"protein LMJF.06.0140 PROTEASOME BETA 6 SUBUNIT, PUTATIVE",0.8
same,fold change,"protein LMJF.06.0650 LANOSTEROL SYNTHASE, PUTATIVE",0.88
same,fold change vs vehicle control,"protein LMJF.08.0510 RIBOSE-PHOSPHATE PYROPHOSPHOKINASE, PUTATIVE",1.04
same,fold change vs vehicle control,protein LMJF.08.0550 TRANSLATION INITIATION FACTOR-LIKE PROTEIN,1.1
same,fold change vs vehicle control,"protein LMJF.08.1100 HY[…], CONSERVED",1.01
same,fold change relative to vehicle control,"protein LMJF.09.1120 MIT[…] BINDING PROTEIN 2,MRP2, GBP25",1.17
same,fold change vs vehicle control,"protein LMJF.09.1260 HY[…], CONSERVED",1.16
same,fold change,protein LMJF.10.1010 NUCLEOSIDE PHOSPHORYLASE-LIKE PROTEIN,0.72
same,fold change,"protein LMJF.10.1240 HYPOTHETICAL PROTEIN, CONSERVED",0.8
same,fold change vs vehicle control,protein LMJF.11.0130 NGG1 I[…] 3-LIKE PROTEIN,0.99
same,fold change vs vehicle control,"protein LMJF.11.0240 […] 7 SUBUNIT, PUTATIVE",1.03
same,fold change,"protein LMJF.11.1050 PRETRA[…], ALPHA SUBUNIT, PUTATIVE",1.11
same,fold change vs vehicle control,"protein LMJF.11.1110 60S RIBOSOMAL PROTEIN L28, PUTATIVE",1.29
same,fold change vs vehicle control,"protein LMJF.12.0210 […] […]1L8 3, PUTATIVE",1.04
same,fold change vs vehicle control,"protein LMJF.12.0280 ORNITHINE DECARBOXYLASE, PUTATIVE",0.98
same,fold change vs vehicle control,"protein LMJF.13.0450 HYPOTHETICAL PROTEIN, CONSERVED",0.99
same,fold change vs vehicle control,"protein LMJF.13.0870 MITOCHONDRIAL PROCESSING PEPTIDASE ALPHA SUBUNIT, PUTATIVE",0.94
same,fold change vs vehicle control,"protein LMJF.14.0130 INOSINE-GUANINE NUCLEOSIDE HYDROLASE, PUTATIVE",0.91
same,fold change,"protein LMJF.14.0310 […] 3 SUBUNIT, PUTATIVE",1.01
same,fold change,"protein LMJF.14.0650 FATTY ACID ELONGASE, PUTATIVE",0.96
same,fold change,"protein LMJF.14.0660 FATTY ACID ELONGASE, PUTATIVE",1.11
same,fold change,"protein LMJF.14.0705 FATTY ACID ELONGASE, PUTATIVE",1.02
same,fold change,"protein LMJF.14.0740 FATTY ACID ELONGASE, PUTATIVE",1.2
same,fold change relative to vehicle control,"protein LMJF.14.1120 KINESIN K39, PUTATIVE",1.45
same,fold change vs vehicle control,"protein LMJF.15.0230 LYSYL-TRNA SYNTHETASE, PUTATIVE",1.07
same,fold change vs vehicle control,"protein LMJF.15.0280 RIBONUCLEOPROTEIN P18, MIT[…], PUTATIVE",1.04
same,fold change,protein LMJF.15.1010 GLUTAMATE DEHYDROGENASE,1.09
same,fold change relative to vehicle control,"protein LMJF.16.0520 HYPOTHETICAL PROTEIN, CONSERVED",2.54
same,fold change,"protein LMJF.16.0540 ASPARTATE CARBAMOYLTRANSFERASE, PUTATIVE",0.89
same,fold change vs vehicle control,protein LMJF.16.0950 SUCROSE-PHOSPHATE SYNTHASE-LIKE PROTEIN,0.99
same,fold change vs vehicle control,"protein LMJF.16.0960 HYPOTHETICAL PROTEIN, CONSERVED",0.44
same,fold change,protein LMJF.16.1180 COATOMER DELTA SUBUNIT-LIKE PROTEIN,0.87
same,fold change,"protein LMJF.17.0010 HYPOTHETICAL PROTEIN, CONSERVED",0.88
same,fold change vs vehicle control,"protein LMJF.18.0510 ACONITASE, PUTATIVE",0.98
same,fold change vs vehicle control,"protein LMJF.18.0890 RAB7 GTP BINDING PROTEIN, PUTATIVE",0.94
same,fold change,"protein LMJF.18.1130 RAS-RELATED PROTEIN RAB-5, PUTATIVE",0.85
same,fold change,"protein LMJF.19.1120 PROTEASOME REGULATORY NON-ATP-ASE SUBUNIT, PUTATIVE",0.9
same,fold change vs vehicle control,"protein LMJF.19.1160 HYPOTHETICAL PROTEIN, CONSERVED",0.83
same,fold change vs vehicle control,protein LMJF.19.1530 PEPTIDYLPROLYL ISOMERASE-LIKE PROTEIN,0.94
same,fold change,"protein LMJF.20.0100 PHOSPH[…] C, GLYCOSOMAL",1.04
same,fold change vs vehicle control,"protein LMJF.21.0720 HY[…], CONSERVED",1.05
same,fold change,"protein LMJF.21.1250 ADENYLATE KINASE, PUTATIVE",0.98
same,fold change,"protein LMJF.21.1555 HY[…], CONSERVED",1.01
same,fold change,"protein LMJF.21.1580 HY[…], UNKNOWN FUNCTION",1.03
same,fold change vs vehicle control,"protein LMJF.21.1700 […] 2 SUBUNIT, PUTATIVE",0.89
same,fold change,"protein LMJF.22.0230 AMINO ACID PERMEASE, PUTATIVE",1.2
same,fold change vs vehicle control,"protein LMJF.22.0730 HYPOTHETICAL PROTEIN, CONSERVED",1
